Measured values from US20250325529A1, “INHIBITORS OF FATTY ACID BINDING PROTEINS (FABPs), METHODS OF USE AND METHODS OF MAKING” (Celloram, inc., priority 2024, published 2025).

Assays:
[1] = Single dose IV and PO PK study in Han Wistar rats; type: in vivo
Description: (§1) C57BL/6 male mice or Han Wistar rats were used, n=3 for each administration route and compound. Single dose of each compound was administered orally (PO, 10 mg/Kg) or by intravenous administration (IV, 1 mg/Kg). Following intravenous and oral administration, blood samples (ca 0.2 mL) were collected and compound amount was measured by HLPC. For IV group, blood samples were collected at 0.083, 0.25, 0.5, 1, 2, 4, 6, 8, and 24 hours post-dose. For PO group, blood samples were collected at 0.25, 0.5, 1, 2, 4, 6, 8, and 24 hours post-dose.

[2] = test system: Salmonella typhimurium tester strain TA1537; assay: Ames test (Bacterial Reverse Mutation Test), TA1537; type: cell-based
Description: (§2) PD152 (compound 2) was tested for genotoxic and cytotoxic side effects by Ames test. The Ames test is a Bacterial Reverse Mutation Test of mutagenicity that utilizes Salmonella typhimurium tester strains TA98, TA100, TA1535, TA1537 and Escherichia coli tester strain WP2 uvrA (pKM101), both in the presence and absence of S9.
(§3) The compound PD152 was tested at 10 concentrations (0.032-1000 μg/plate) in the presence of, or absence of, the hepatic enzyme S9.
The aniline FABP4/5 inhibitor compound, 2-((2-((2,4-dichloro-5-isopropoxyphenyl)amino)-2-oxoethyl)thio)-2-methylpropanoic acid (compound “B104” as disclosed in WO2023043803A1) also was tested for genotoxic and cytotoxic side effects by Ames test. […]

[3] = test system: Escherichia coli tester strain WP2 uvrA (pKM101); assay: Ames test (Bacterial Reverse Mutation Test), E. coli; type: cell-based
Description: as §2, §3

[4] = Single dose IV and PO PK study in C57BL/6 mice; type: in vivo; details: male C57BL/6 mice
Description: as §1

[5] = molecular target: FABP4 (Homo sapiens (Human), UniProt P15090); assay: Fluorescence (ANS) competition binding assay, FABP4; details: ANS displacement
Chain of FABP4 (P15090 whole entry, species assumed): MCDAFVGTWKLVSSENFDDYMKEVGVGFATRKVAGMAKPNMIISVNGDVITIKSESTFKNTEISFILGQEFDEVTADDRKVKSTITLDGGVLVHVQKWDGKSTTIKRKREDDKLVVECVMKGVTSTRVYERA
Description: This example illustrates a two-step fluorescence binding assay study used to determine the binding affinity of the various inhibitor compounds disclosed herein with the various FABPs: FABP3, FABP4, FABP5 and FABP7. Further secondary screening studies were carried out for compounds with high binding affinities toward the FABPs and based on their ability to activate the nuclear receptors PPARα, PPARγ, or PPARδ.
Binding assays for FABP3, FABP4, FABP5 and FABP7 were carried out by fluorescence titrations. His-tagged FABPs were bacterially expressed in E. coli, purified using Ni Sepharose beads, and the equilibrium dissociation constants (Kd) that characterize their interactions with different inhibitor compounds were measured by fluorescence competition assays. The method entails two steps as described in e.g., Lin, Q. et al., “Ligand selectivity of the peroxisome proliferator-activated receptor alpha,” Biochemistry 38, 185-190, doi:10.1021/bi9816094 [pii](1999). In the first step, Kd for the association of the protein with the fluorescent fatty acid probe ANS was measured. Protein (2 μM) was titrated with ANS from a concentrated solution in DMSO. Ligand binding was monitored by following the increase in the fluorescence of the ligand upon binding to the protein, and Kd for the association of ANS with the each FABP was computed from titration curves as described in e.g., Norris, A. W. & Li, E., “Fluorometric titration of the CRABPs,” Methods Mol Biol 89, 123-139 (1998)). In the second step, Kds for binding of non-fluorescent ligands were measured by monitoring their ability to displace ANS in the binding pocket of the protein. Each FABP was precomplexed with ANS at 1:1 molar ratio and titrated with the different compounds whose binding was reflected by a decrease in probe fluorescence. Kds were extracted from the EC50 of the competition curve and the measured Kd for ANS.

[6] = rat, plasma, intravenous 1 mg/kg
[7] = TA1537, absence of S9, 0.0312 μg/plate
[8] = TA1537, absence of S9, 0.1 μg/plate
[9] = TA1537, absence of S9, 0.316 μg/plate
[10] = TA1537, absence of S9, 1 μg/plate
[11] = TA1537, absence of S9, 3.16 μg/plate
[12] = TA1537, absence of S9, 10 μg/plate
[13] = TA1537, absence of S9, 31.6 μg/plate
[14] = TA1537, absence of S9, 100 μg/plate
[15] = TA1537, absence of S9, 316 μg/plate
[16] = TA1537, absence of S9, 1000 μg/plate
[17] = TA1537, presence of S9, 0.0312 μg/plate
[18] = TA1537, presence of S9, 0.1 μg/plate
[19] = TA1537, presence of S9, 0.316 μg/plate
[20] = TA1537, presence of S9, 1 μg/plate
[21] = TA1537, presence of S9, 3.16 μg/plate
[22] = TA1537, presence of S9, 10 μg/plate
[23] = TA1537, presence of S9, 31.6 μg/plate
[24] = TA1537, presence of S9, 100 μg/plate
[25] = TA1537, presence of S9, 316 μg/plate
[26] = TA1537, presence of S9, 1000 μg/plate
[27] = presence of S9, 0.0312 μg/plate
[28] = mouse, plasma, intravenous 1 mg/kg

## CC(C)Oc1nc(NC(=O)CSCC(=O)O)c(Cl)cc1Cl [PD152, 2-((2-((3,5-dichloro-6-isopropoxypyridin-2-yl)amino)-2-oxoethyl)thio)acetic acid]
[1]; oral 10 mg/kg
  Thalf: 1.13 h
[1]; [6]
  clearance: 16 mL/min/kg
  half-life: ~0.73 h
[1]; rat, plasma, oral 10 mg/kg
  bioavailability: 141%
[2]; [7]
  Fold increase: 1
  Mean number of revertants: 3
[2]; [8]
  Fold increase: 1
  Mean number of revertants: 3
[2]; [9]
  Fold increase: 1
  Mean number of revertants: 4
[2]; [10]
  Fold increase: 1
  Mean number of revertants: 3
[2]; [11]
  Fold increase: 1
  Mean number of revertants: 3
[2]; [12]
  Fold increase: 1
  Mean number of revertants: 3
[2]; [13]
  Fold increase: 1
  Mean number of revertants: 4
[2]; [14]
  Fold increase: 1
  Mean number of revertants: 3
[2]; [15]
  Fold increase: 1
  Mean number of revertants: 3
[2]; [16]
  Fold increase: 1
  Mean number of revertants: 3
[2]; [17]
  Fold increase: 1
  Mean number of revertants: 4
[2]; [18]
  Fold increase: 1
  Mean number of revertants: 3
[2]; [19]
  Fold increase: 1
  Mean number of revertants: 3
[2]; [20]
  Fold increase: 1
  Mean number of revertants: 3
[2]; [21]
  Fold increase: 1
  Mean number of revertants: 3
[2]; [22]
  Fold increase: 1
  Mean number of revertants: 4
[2]; [23]
  Fold increase: 1
  Mean number of revertants: 3
[2]; [24]
  Fold increase: 1
  Mean number of revertants: 3
[2]; [25]
  Fold increase: 1
  Mean number of revertants: 4
[2]; [26]
  Fold increase: 1
  Mean number of revertants: 4
[3]; absence of S9, 0.0312 μg/plate
  Fold increase: 1
  Mean number of revertants: 41
[3]; absence of S9, 0.1 μg/plate
  Fold increase: 1
  Mean number of revertants: 39
[3]; absence of S9, 0.316 μg/plate
  Fold increase: 1
  Mean number of revertants: 41
[3]; absence of S9, 1 μg/plate
  Fold increase: 1
  Mean number of revertants: 39
[3]; absence of S9, 3.16 μg/plate
  Fold increase: 1
  Mean number of revertants: 42
[3]; absence of S9, 10 μg/plate
  Fold increase: 1
  Mean number of revertants: 40
[3]; absence of S9, 31.6 μg/plate
  Fold increase: 1
  Mean number of revertants: 42
[3]; absence of S9, 100 μg/plate
  Fold increase: 1
  Mean number of revertants: 42
[3]; absence of S9, 316 μg/plate
  Fold increase: 1
  Mean number of revertants: 40
[3]; absence of S9, 1000 μg/plate
  Fold increase: 1
  Mean number of revertants: 42
[3]; [27]
  Fold increase: 1
  Mean number of revertants: 39
[3]; presence of S9, 0.1 μg/plate
  Fold increase: 1
  Mean number of revertants: 42
[3]; presence of S9, 0.316 μg/plate
  Fold increase: 1
  Mean number of revertants: 40
[3]; presence of S9, 1 μg/plate
  Fold increase: 1
  Mean number of revertants: 38
[3]; presence of S9, 3.16 μg/plate
  Fold increase: 1
  Mean number of revertants: 38
[3]; presence of S9, 10 μg/plate
  Fold increase: 1
  Mean number of revertants: 41
[3]; presence of S9, 31.6 μg/plate
  Fold increase: 1
  Mean number of revertants: 41
[3]; presence of S9, 100 μg/plate
  Fold increase: 1
  Mean number of revertants: 39
[3]; presence of S9, 316 μg/plate
  Fold increase: 1
  Mean number of revertants: 40
[3]; presence of S9, 1000 μg/plate
  Fold increase: 1
  Mean number of revertants: 40
[4]; oral 10 mg/kg
  Thalf: 2.6 h
[4]; [28]
  clearance: 16.1 mL/min/kg
  half-life: 3 to 4 h
[4]; mouse, plasma, single oral dose 10 mg/kg
  bioavailability: 75%
[5]
  Kd: 18 nM
